This passage reports IC50 results from patent US9340590B2 (priority 2011, dated 2016).

Where two headings read alike, the source gives them in different places. Positions of bridges follow the written chain, without caps; N, C: chain ends. Residues, ends and D or L forms follow the SMILES beside them.

One experiment concerns the target hNav1.3 (Homo sapiens, UniProt Q9NY46). Put plainly: cell-based. Particulars: IonWorks Quattro, read-out: IWQ Use Nav1.3. For orientation: In patch-clamp work, channel activity is measured electrically.
A further experiment concerns the target hNav1.5 (Homo sapiens, UniProt Q14524). Put plainly: cell-based.
Where [1] appears, read: IonWorks Quattro, Use, read-out: IWQ Use Nav1.5.

Sequence of hNav1.3 (Q9NY46 whole entry, looked up): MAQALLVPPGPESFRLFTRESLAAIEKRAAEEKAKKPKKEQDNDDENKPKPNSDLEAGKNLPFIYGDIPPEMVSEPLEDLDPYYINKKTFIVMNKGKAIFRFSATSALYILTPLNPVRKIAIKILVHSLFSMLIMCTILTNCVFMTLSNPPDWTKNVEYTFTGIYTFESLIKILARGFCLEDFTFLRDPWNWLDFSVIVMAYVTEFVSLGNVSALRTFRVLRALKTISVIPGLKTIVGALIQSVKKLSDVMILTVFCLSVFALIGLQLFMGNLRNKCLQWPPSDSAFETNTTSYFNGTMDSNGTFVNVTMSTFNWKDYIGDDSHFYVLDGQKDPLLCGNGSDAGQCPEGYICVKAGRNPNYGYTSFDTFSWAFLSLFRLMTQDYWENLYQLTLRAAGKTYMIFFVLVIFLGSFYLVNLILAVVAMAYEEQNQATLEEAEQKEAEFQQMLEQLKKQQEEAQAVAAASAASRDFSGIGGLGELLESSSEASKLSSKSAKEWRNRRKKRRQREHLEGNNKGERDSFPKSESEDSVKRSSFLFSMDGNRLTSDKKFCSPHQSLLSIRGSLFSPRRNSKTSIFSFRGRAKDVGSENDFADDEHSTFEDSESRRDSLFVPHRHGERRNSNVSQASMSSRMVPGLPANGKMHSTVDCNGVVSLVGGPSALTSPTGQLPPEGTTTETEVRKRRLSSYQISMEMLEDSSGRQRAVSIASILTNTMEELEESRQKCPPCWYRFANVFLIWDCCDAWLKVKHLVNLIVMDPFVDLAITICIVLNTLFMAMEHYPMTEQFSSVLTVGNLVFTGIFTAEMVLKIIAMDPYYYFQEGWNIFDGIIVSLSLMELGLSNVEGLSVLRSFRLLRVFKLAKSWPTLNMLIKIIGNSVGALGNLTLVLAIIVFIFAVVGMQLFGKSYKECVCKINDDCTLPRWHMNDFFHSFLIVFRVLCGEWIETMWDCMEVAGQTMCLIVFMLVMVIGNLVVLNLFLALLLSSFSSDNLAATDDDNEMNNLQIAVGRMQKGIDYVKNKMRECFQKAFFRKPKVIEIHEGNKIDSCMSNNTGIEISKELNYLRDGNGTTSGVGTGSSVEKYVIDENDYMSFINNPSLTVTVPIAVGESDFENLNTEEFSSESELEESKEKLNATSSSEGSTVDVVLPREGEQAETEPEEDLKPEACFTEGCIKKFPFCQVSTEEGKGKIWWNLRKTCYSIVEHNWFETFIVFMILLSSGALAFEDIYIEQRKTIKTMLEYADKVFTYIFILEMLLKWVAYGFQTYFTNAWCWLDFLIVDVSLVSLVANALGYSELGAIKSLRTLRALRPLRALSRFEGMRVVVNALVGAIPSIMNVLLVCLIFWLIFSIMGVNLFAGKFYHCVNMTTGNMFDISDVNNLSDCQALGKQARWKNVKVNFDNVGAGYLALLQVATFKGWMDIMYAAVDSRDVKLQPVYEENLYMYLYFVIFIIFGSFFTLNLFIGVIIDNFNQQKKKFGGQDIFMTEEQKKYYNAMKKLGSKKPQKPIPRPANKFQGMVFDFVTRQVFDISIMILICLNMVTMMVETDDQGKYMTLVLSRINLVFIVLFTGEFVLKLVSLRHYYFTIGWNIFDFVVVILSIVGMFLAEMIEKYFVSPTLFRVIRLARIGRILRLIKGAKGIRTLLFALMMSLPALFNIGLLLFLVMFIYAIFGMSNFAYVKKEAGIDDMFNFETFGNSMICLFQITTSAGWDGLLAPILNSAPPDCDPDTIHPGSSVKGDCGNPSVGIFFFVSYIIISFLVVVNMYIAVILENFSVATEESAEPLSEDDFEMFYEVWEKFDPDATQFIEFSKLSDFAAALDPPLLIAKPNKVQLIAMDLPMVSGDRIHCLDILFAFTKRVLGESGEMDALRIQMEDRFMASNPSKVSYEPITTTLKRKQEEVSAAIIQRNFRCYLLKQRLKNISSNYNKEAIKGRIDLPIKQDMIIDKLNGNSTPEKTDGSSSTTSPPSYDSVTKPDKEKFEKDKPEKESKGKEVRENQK
Sequence of hNav1.5 (Q14524 whole entry, looked up): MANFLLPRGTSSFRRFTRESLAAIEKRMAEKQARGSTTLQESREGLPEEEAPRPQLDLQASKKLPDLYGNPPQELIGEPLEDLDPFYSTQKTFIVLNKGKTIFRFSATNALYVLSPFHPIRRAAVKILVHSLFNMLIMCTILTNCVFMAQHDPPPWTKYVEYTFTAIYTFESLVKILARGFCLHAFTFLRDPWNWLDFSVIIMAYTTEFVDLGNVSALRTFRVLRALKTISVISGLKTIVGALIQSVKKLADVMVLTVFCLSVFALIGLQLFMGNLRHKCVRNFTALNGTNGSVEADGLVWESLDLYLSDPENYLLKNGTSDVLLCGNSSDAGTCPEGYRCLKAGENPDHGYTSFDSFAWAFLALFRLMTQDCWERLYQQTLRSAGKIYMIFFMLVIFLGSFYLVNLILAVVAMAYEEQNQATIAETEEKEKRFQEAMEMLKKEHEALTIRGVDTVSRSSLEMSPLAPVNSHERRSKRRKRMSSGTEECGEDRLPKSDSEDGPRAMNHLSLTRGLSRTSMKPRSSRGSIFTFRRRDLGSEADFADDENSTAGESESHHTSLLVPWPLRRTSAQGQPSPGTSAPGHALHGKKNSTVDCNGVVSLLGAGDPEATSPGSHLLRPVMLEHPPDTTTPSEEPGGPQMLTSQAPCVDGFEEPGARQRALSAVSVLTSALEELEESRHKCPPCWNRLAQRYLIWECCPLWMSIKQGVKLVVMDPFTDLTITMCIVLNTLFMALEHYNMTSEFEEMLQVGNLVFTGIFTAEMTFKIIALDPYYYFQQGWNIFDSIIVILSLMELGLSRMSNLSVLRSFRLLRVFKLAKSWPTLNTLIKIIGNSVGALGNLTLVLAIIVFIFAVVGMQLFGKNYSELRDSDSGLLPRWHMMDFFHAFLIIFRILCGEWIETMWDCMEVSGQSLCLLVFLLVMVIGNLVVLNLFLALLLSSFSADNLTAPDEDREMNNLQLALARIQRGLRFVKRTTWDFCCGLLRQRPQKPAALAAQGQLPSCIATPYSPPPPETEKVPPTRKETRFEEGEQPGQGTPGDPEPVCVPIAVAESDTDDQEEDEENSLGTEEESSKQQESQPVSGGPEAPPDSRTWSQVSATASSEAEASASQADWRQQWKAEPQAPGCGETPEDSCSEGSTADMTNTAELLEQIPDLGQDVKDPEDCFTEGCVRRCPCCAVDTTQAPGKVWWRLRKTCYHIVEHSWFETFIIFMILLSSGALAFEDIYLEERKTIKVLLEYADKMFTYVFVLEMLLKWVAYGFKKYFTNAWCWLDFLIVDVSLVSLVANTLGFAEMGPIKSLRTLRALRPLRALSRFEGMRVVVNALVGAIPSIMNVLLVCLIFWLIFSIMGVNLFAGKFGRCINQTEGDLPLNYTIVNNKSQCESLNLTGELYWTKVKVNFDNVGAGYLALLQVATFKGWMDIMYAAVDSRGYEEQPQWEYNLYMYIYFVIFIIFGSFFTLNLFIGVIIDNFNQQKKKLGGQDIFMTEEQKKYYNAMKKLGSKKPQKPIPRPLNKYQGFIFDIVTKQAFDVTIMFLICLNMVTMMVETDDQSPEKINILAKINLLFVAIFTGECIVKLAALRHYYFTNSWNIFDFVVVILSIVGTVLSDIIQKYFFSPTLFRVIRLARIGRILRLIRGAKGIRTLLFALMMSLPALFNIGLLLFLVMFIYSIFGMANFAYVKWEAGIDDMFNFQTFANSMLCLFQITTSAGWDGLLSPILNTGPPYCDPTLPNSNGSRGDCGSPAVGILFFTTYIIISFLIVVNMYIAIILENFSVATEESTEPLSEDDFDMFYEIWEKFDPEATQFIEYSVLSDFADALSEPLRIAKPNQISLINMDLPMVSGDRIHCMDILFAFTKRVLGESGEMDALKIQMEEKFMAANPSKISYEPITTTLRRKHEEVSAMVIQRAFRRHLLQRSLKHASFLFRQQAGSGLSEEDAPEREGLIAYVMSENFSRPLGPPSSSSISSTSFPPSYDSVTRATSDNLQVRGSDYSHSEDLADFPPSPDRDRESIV

Regarding `CC[C@H](C)[C@@H]1NC(=O)[C@@H]2CSSC[C@@H]3NC(=O)[C@H](C)NC(=O)[C@H](CC(C)C)NC(=O)[C@H](CC(N)=O)NC(=O)[C@@H]4CCCN4C(=O)[C@H](CCCNC(=N)N)NC(=O)[C@H](CSSC[C@H](NC(=O)[C@@H](N)CC(=O)O)C(=O)N[C@@H](CC(C)C)C(=O)NCC(=O)N[C@@H](Cc4ccccc4)C(=O)N[C@@H](CCSC)C(=O)N[C@@H](CCCNC(=N)N)C(=O)N[C@@H](CCCCN)C(=O)N2)NC(=O)[C@H](CSSC[C@@H](C(=O)N[C@@H](CCCCN)C(=O)N[C@@H](Cc2ccc(O)cc2)C(=O)N[C@H](C(=O)N[C@@H](Cc2ccccc2)C(N)=O)C(C)C)NC(=O)[C@H](Cc2c[nH]c4ccccc24)NC(=O)[C@H](CCCCN)NC(=O)[C@H](Cc2cnc[nH]2)NC(=O)[C@H]([C@@H](C)O)NC(=O)[C@H](CCCNC(=N)N)NC(=O)[C@H](CO)NC3=O)NC(=O)[C@H](CCCCN)NC(=O)[C@H](CC(=O)O)NC(=O)[C@H](CC(N)=O)NC(=O)[C@H](CC(=O)O)NC(=O)[C@@H]2CCCN2C1=O` [compound 8] (H-DCLGFMRKCIPDNDKCCRPNLACSRTHKWCKYVF-NH2; disulfide 2-17, 9-23, 16-30), the IC50 at hNav1.3 (Use) is 0.32 µM; on hNav1.5 (setting [1]), 20.4 µM.

Consider `CC[C@H](C)[C@@H]1NC(=O)[C@@H]2CSSC[C@@H]3NC(=O)[C@H](C(C)C)NC(=O)[C@H](CC(C)C)NC(=O)[C@H](CC(N)=O)NC(=O)[C@@H]4CCCN4C(=O)[C@H](CCCNC(=N)N)NC(=O)[C@H](CSSC[C@H](NC(=O)[C@@H](N)CC(=O)O)C(=O)N[C@@H](CC(C)C)C(=O)NCC(=O)N[C@@H](Cc4ccccc4)C(=O)N[C@@H](CCSC)C(=O)N[C@@H](CCCNC(=N)N)C(=O)N[C@@H](CCCCN)C(=O)N2)NC(=O)[C@H](CSSC[C@@H](C(=O)N[C@@H](CCCCN)C(=O)N[C@@H](C)C(=O)N[C@H](C(=O)N[C@@H](Cc2ccccc2)C(N)=O)C(C)C)NC(=O)[C@H](Cc2c[nH]c4ccccc24)NC(=O)[C@H](CCCCN)NC(=O)[C@H](Cc2cnc[nH]2)NC(=O)[C@H]([C@@H](C)O)NC(=O)[C@H](CCCNC(=N)N)NC(=O)[C@H](CO)NC3=O)NC(=O)[C@H](CCCCN)NC(=O)[C@H](CC(=O)O)NC(=O)[C@H](CC(N)=O)NC(=O)[C@H](CC(=O)O)NC(=O)[C@@H]2CCCN2C1=O` [compound 14] (H-DCLGFMRKCIPDNDKCCRPNLVCSRTHKWCKAVF-NH2; disulfide 2-17, 9-23, 16-30), for which the IC50 came out at 0.77 µM at hNav1.3 (Table 25, use, […]) and 20.6 µM at hNav1.5 (Table 25, IonWorks Quattro, use, […], read-out: IWQ Use Nav1.5).

As to `CC[C@H](C)[C@@H]1NC(=O)[C@@H]2CSSC[C@@H]3NC(=O)[C@H](C(C)C)NC(=O)[C@H](CC(C)C)NC(=O)[C@H](CC(N)=O)NC(=O)[C@@H]4CCCN4C(=O)[C@H](CCCNC(=N)N)NC(=O)[C@H](CSSC[C@H](NC(=O)[C@@H](N)CC(=O)O)C(=O)N[C@@H](CC(C)C)C(=O)NCC(=O)N[C@@H](Cc4ccccc4)C(=O)N[C@@H](CCSC)C(=O)N[C@@H](CCCNC(=N)N)C(=O)N[C@@H](CCCCN)C(=O)N2)NC(=O)[C@H](CSSC[C@@H](C(=O)N[C@@H](CCCCN)C(=O)N[C@@H](Cc2ccc(O)cc2)C(=O)N[C@H](C(=O)N[C@@H](Cc2ccccc2)C(N)=O)C(C)C)NC(=O)[C@H](Cc2c[nH]c4ccccc24)NC(=O)[C@H](CCCCN)NC(=O)[C@H](Cc2cnc[nH]2)NC(=O)[C@H]([C@@H](C)O)NC(=O)[C@H](CCCNC(=N)N)NC(=O)[C@H](CO)NC3=O)NC(=O)[C@H](CCCCN)NC(=O)[C@H](CC(=O)O)NC(=O)[C@H](CC(N)=O)NC(=O)[C@H](CCCCN)NC(=O)[C@@H]2CCCN2C1=O` [compound 42] (H-DCLGFMRKCIPKNDKCCRPNLVCSRTHKWCKYVF-NH2; disulfide 2-17, 9-23, 16-30), the IC50 at hNav1.3 (Use) is 0.09 µM; on hNav1.5 (IWQ Use Nav1.5 (μM)) it was 6.51 µM.

`CSCC[C@@H]1NC(=O)[C@H](Cc2ccccc2)NC(=O)CNC(=O)[C@H](CC(C)C)NC(=O)[C@@H](NC(=O)[C@@H](N)CC(=O)O)CSSC[C@@H]2NC(=O)[C@@H]3CSSC[C@@H](C(=O)N[C@@H](CCCCN)C(=O)N[C@@H](Cc4ccc(O)cc4)C(=O)N[C@H](C(=O)N[C@@H](Cc4ccccc4)C(N)=O)C(C)C)NC(=O)[C@H](Cc4c[nH]c5ccccc45)NC(=O)[C@H](CCCCN)NC(=O)[C@H](Cc4cnc[nH]4)NC(=O)[C@H]([C@@H](C)O)NC(=O)[C@H](CCCNC(=N)N)NC(=O)[C@H](CO)NC(=O)[C@H](CSSC[C@H](NC(=O)[C@H](CCCCN)NC(=O)[C@H](CCCNC(=N)N)NC1=O)C(=O)N[C@@H](C)C(=O)N1CCC[C@H]1C(=O)N[C@@H](CC(=O)O)C(=O)N[C@@H](CC(N)=O)C(=O)N[C@@H](CC(=O)O)C(=O)N[C@@H](CCCCN)C(=O)N3)NC(=O)[C@H](C(C)C)NC(=O)[C@H](CC(C)C)NC(=O)[C@H](CC(N)=O)NC(=O)[C@@H]1CCCN1C(=O)[C@H](CCCNC(=N)N)NC2=O` [compound 45] (H-DCLGFMRKCAPDNDKCCRPNLVCSRTHKWCKYVF-NH2; disulfide 2-17, 9-23, 16-30): the IC50 on hNav1.3 (Use) was determined as 0.19 µM; at hNav1.5 (setting [1]) it was 16.5 µM.

Consider `CC[C@H](C)[C@@H]1NC(=O)[C@@H]2CSSC[C@@H]3NC(=O)[C@H](C(C)C)NC(=O)[C@H](CC(C)C)NC(=O)[C@H](CC(N)=O)NC(=O)[C@@H]4CCCN4C(=O)[C@H](CCCNC(=N)N)NC(=O)[C@H](CSSC[C@H](NC(=O)[C@@H](N)CC(=O)O)C(=O)N[C@@H](CC(C)C)C(=O)NCC(=O)N[C@@H](Cc4ccccc4)C(=O)N[C@@H](CCSC)C(=O)N[C@@H](CCCNC(=N)N)C(=O)N[C@@H](CCCCN)C(=O)N2)NC(=O)[C@H](CSSC[C@@H](C(=O)N[C@@H](CCCCN)C(=O)N[C@@H](Cc2ccc(O)cc2)C(=O)N[C@H](C(=O)N[C@@H](Cc2ccccc2)C(N)=O)C(C)C)NC(=O)[C@H](Cc2c[nH]c4ccccc24)NC(=O)[C@H](CCCCN)NC(=O)[C@H](Cc2cnc[nH]2)NC(=O)[C@H]([C@@H](C)O)NC(=O)[C@H](CCCNC(=N)N)NC(=O)[C@H](CO)NC3=O)NC(=O)[C@H](CCCCN)NC(=O)[C@H](CC(=O)O)NC(=O)[C@H](CCCCN)NC(=O)[C@H](CC(=O)O)NC(=O)[C@@H]2CCCN2C1=O` [compound 48] (H-DCLGFMRKCIPDKDKCCRPNLVCSRTHKWCKYVF-NH2; disulfide 2-17, 9-23, 16-30), for which the IC50 stood at 0.13 µM at hNav1.3 (Use) and 9.72 µM on hNav1.5 (setting [1]).

Regarding `CC[C@H](C)[C@@H]1NC(=O)[C@@H]2CSSC[C@@H]3NC(=O)[C@H](C(C)C)NC(=O)[C@H](CC(C)C)NC(=O)[C@H](CC(N)=O)NC(=O)[C@H](CCCCN)NC(=O)[C@H](CCCNC(=N)N)NC(=O)[C@H](CSSC[C@H](NC(=O)[C@@H](N)CC(=O)O)C(=O)N[C@@H](CC(C)C)C(=O)NCC(=O)N[C@@H](Cc4ccccc4)C(=O)N[C@@H](CCSC)C(=O)N[C@@H](CCCNC(=N)N)C(=O)N[C@@H](CCCCN)C(=O)N2)NC(=O)[C@H](CSSC[C@@H](C(=O)N[C@@H](CCCCN)C(=O)N[C@@H](Cc2ccc(O)cc2)C(=O)N[C@H](C(=O)N[C@@H](Cc2ccccc2)C(N)=O)C(C)C)NC(=O)[C@H](Cc2c[nH]c4ccccc24)NC(=O)[C@H](CCCCN)NC(=O)[C@H](Cc2cnc[nH]2)NC(=O)[C@H]([C@@H](C)O)NC(=O)[C@H](CCCNC(=N)N)NC(=O)[C@H](CO)NC3=O)NC(=O)[C@H](CCCCN)NC(=O)[C@H](CC(=O)O)NC(=O)[C@H](CC(N)=O)NC(=O)[C@H](CC(=O)O)NC(=O)[C@@H]2CCCN2C1=O` [compound 50] (H-DCLGFMRKCIPDNDKCCRKNLVCSRTHKWCKYVF-NH2; disulfide 2-17, 9-23, 16-30), the results for the IC50 on hNav1.3 (Use) and at hNav1.5 (setting [1]) were 0.18 µM and 10.6 µM, respectively.

Turning to `CC[C@H](C)[C@@H]1NC(=O)[C@@H]2CSSC[C@@H]3NC(=O)[C@H](C(C)C)NC(=O)[C@H](CC(C)C)NC(=O)[C@H](CC(N)=O)NC(=O)[C@@H]4CCCN4C(=O)[C@H](CCCNC(=N)N)NC(=O)[C@H](CSSC[C@H](NC(=O)[C@@H](N)CC(=O)O)C(=O)N[C@@H](CC(C)C)C(=O)NCC(=O)N[C@@H](Cc4ccccc4)C(=O)N[C@@H](CCSC)C(=O)N[C@@H](CCCNC(=N)N)C(=O)N[C@@H](CCCCN)C(=O)N2)NC(=O)[C@H](CSSC[C@@H](C(=O)N[C@@H](CCCCN)C(=O)N[C@@H](Cc2ccc(O)cc2)C(=O)N[C@H](C(=O)N[C@@H](Cc2ccccc2)C(N)=O)C(C)C)NC(=O)[C@H](Cc2c[nH]c4ccccc24)NC(=O)[C@H](CCCCN)NC(=O)[C@H](Cc2cnc[nH]2)NC(=O)[C@H]([C@@H](C)O)NC(=O)[C@H](CCCCN)NC(=O)[C@H](CO)NC3=O)NC(=O)[C@H](CCCCN)NC(=O)[C@H](CC(=O)O)NC(=O)[C@H](CC(N)=O)NC(=O)[C@H](CC(=O)O)NC(=O)[C@@H]2CCCN2C1=O` [compound 53] (H-DCLGFMRKCIPDNDKCCRPNLVCSKTHKWCKYVF-NH2; disulfide 2-17, 9-23, 16-30), the values for the IC50 at hNav1.3 (Use) and at hNav1.5 (IWQ Use Nav1.5 (μM)) were 0.24 µM and 15.2 µM, respectively.

On to `CC[C@H](C)[C@@H]1NC(=O)[C@@H]2CSSC[C@@H]3NC(=O)[C@H](C(C)C)NC(=O)[C@H](CC(C)C)NC(=O)[C@H](CC(N)=O)NC(=O)[C@@H]4CCCN4C(=O)[C@H](CCCNC(=N)N)NC(=O)[C@H](CSSC[C@H](NC(=O)[C@@H](N)CC(=O)O)C(=O)N[C@@H](CC(C)C)C(=O)NCC(=O)N[C@@H](Cc4ccccc4)C(=O)N[C@@H](CCSC)C(=O)N[C@@H](CCCNC(=N)N)C(=O)N[C@@H](CCCCN)C(=O)N2)NC(=O)[C@H](CSSC[C@@H](C(=O)N[C@@H](CCCCN)C(=O)N[C@@H](Cc2ccc(O)cc2)C(=O)N[C@H](C(=O)N[C@@H](Cc2ccccc2)C(N)=O)C(C)C)NC(=O)[C@H](Cc2c[nH]c4ccccc24)NC(=O)[C@H](CCCCN)NC(=O)[C@H](Cc2cnc[nH]2)NC(=O)[C@H]([C@@H](C)O)NC(=O)[C@H](CCCNC(=N)N)NC(=O)[C@H](CO)NC3=O)NC(=O)[C@H](CCCCN)NC(=O)[C@H](CC(=O)O)NC(=O)[C@H](CC(N)=O)NC(=O)[C@H](CCCNC(=N)N)NC(=O)[C@@H]2CCCN2C1=O` [compound 67] (H-DCLGFMRKCIPRNDKCCRPNLVCSRTHKWCKYVF-NH2; disulfide 2-17, 9-23, 16-30), for which the IC50 on hNav1.3 (Use) turned out to be 0.14 µM; at hNav1.5 (setting [1]), 5 µM.
